How the values were obtained:
Type in all cases: cell-based
[1] = system: mixed culture of Pseudomonas aeruginosa, Enterobacter cloacae, Bacillus subtilis, B. megaterium, B. licheniformis, Aspergillus niger and Penicillium …; assay: Latex paint in-can preservation, ASTM D2574-94, mixed inoculum; design: key: 0: no growth; 4: heavy growth
Description: The efficacy of each individual compound or their combination was measured in a latex paint artificially contaminated with a mixed inoculum. The microbiological evaluations shown as examples, are based on ASTM D2574–94, “Resistance of emulsion paints in the container to the attack of microorganisms”. Briefly, paint samples (e.g. Polyvinyl Acrylic, PCL 717) were prepared to contain different concentrations of each compound or their mixtures in different concentrations and ratios. Each paint sample thus prepared was then inoculated with a mixed culture of Pseudomonas aeruginosa, Enterobacter cloacae, Bacillus subtilis, B. megaterium, B. licheniformis, Aspergillus niger and Penicillium funiculosum (final concentration of about 10^6 CFU/ml) and re-challenged after 7 days (final concentration of about 10^7 CFU/ml). Paint samples were incubated at 32° C. for the duration of the test and sampled for the presence of viable bacteria on TSA and M plates. Growth was rated on a scale from “0” (no growth) to “4” (heavy growth). A paint sample was considered appropriately preserved if no bacterial growth (“0” rating) was detected after six days incubation in both challenge assays.
The table summarizes the results obtained when mixtures of the low formaldehyde hydroxymethyl oxazolidine (HMBO) (compound A) and IPBC (compound B) in PEG-400 were tested.

Alternaria alternata = assay: MIC and synergy on Malt Agar; settings: 28° C., 10–12 days
Description: (§1) One hundred μl of the bacterial suspensions were added to TSB broth containing each biocide or biocide mixture to a final concentration of approximately 10^6 CFU/ml. The inoculated broth was then incubated at 32° C. for 2–3 days. For fungi MIC, 10 μl of the fungi suspensions were pipetted to the solidified Malt agar containing various concentrations of each biocide or the biocide mixture. Final concentration about 10^5 spores/ml. Plates were incubated for 10–12 days at 28° C.
(§2) The lowest concentration of each compound or mixture to inhibit visible growth at 32° C. after 2–3 days for bacteria and at 28° after 10–12 days for fungi were taken as the Minimal Inhibitory Concentration (MIC). The MIC was taken as endpoints of activity. End points for the mixture of HMBO and IPBC where then compared with the end points for the pure active compound when employed individually.
(§3) Synergism was determined by a commonly used method described by Kull, A. C., Eisman, P. C, Sylwestrowicz, H., D. and Mayer, R. L. (1961). Applied Microbiology, 9:538 using the ratio determined by: Qa/QA+Qb/QB=Synergy Index (SI).
(§4) Wherein: QA is the concentration of HMBO in parts per million (ppm), acting alone, which produced and end point. Qa is the concentration of HMBO in ppm, in the mixture, which produced and end point. QB is the concentration of IPBC in ppm, acting alone, which produced an end point and Qb is the concentraton of IPBC in ppm, in the mixture, which produced an end point.
(§5) When the sum of Qa/QA+Qb/QB is greater than one, antagonism is indicated. When the sum is equal to one, additivity is indicated.

[2] = system: Aspergillus niger (ATCC 6275); assay: MIC and synergy on Malt Agar; settings: 28° C., 10–12 days
Description: as §1, §2, §3, §4, §5

[3] = system: Bacillus subtilis (ATCC 27328); assay: MIC and synergy in Tryptic Soy Broth; settings: TSB, 32° C., 2–3 days
Description: as §1, §2, §3
Wherein: QA is the concentration of HMBO in parts per million (ppm), acting alone, which produced and end point. Qa is the concentration of HMBO in ppm, in the mixture, which produced and end point. […]

OCC12COCN1COC2 [compound A, hydroxymethyl bicyclic oxazolidine]
Growth rating MALT Plates CI 1 ([1]; A alone 500 ppm): 0
Growth rating MALT Plates CI 2 ([1]; A alone 500 ppm): 0
Growth rating MALT Plates CI 3 ([1]; A alone 500 ppm): 0
Growth rating MALT Plates CI 6 ([1]; A alone 500 ppm): 0
Growth rating MALT Plates CII 1 ([1]; A alone 500 ppm): 0
Growth rating MALT Plates CII 2 ([1]; A alone 500 ppm): 0
Growth rating MALT Plates CII 3 ([1]; A alone 500 ppm): 0
Growth rating MALT Plates CII 6 ([1]; A alone 500 ppm): 0
Growth rating TSA plates CI 1 ([1]; A alone 500 ppm): 0
Growth rating TSA plates CI 2 ([1]; A alone 500 ppm): 0
Growth rating TSA plates CI 3 ([1]; A alone 500 ppm): 0
Growth rating TSA plates CI 6 ([1]; A alone 500 ppm): 0
Growth rating TSA plates CII 1 ([1]; A alone 500 ppm): 1
Growth rating TSA plates CII 2 ([1]; A alone 500 ppm): 1
Growth rating TSA plates CII 3 ([1]; A alone 500 ppm): 1
Growth rating TSA plates CII 6 ([1]; A alone 500 ppm): 1
Growth rating MALT Plates CI 1 ([1]; A alone 520 ppm): 0
Growth rating MALT Plates CI 2 ([1]; A alone 520 ppm): 0
Growth rating MALT Plates CI 3 ([1]; A alone 520 ppm): 0
Growth rating MALT Plates CI 6 ([1]; A alone 520 ppm): 0
Growth rating MALT Plates CII 1 ([1]; A alone 520 ppm): 0
Growth rating MALT Plates CII 2 ([1]; A alone 520 ppm): 1
Growth rating MALT Plates CII 3 ([1]; A alone 520 ppm): 1
Growth rating MALT Plates CII 6 ([1]; A alone 520 ppm): 0
Growth rating TSA plates CI 1 ([1]; A alone 520 ppm): 0
Growth rating TSA plates CI 2 ([1]; A alone 520 ppm): 0
Growth rating TSA plates CI 3 ([1]; A alone 520 ppm): 0
Growth rating TSA plates CI 6 ([1]; A alone 520 ppm): 0
Growth rating TSA plates CII 1 ([1]; A alone 520 ppm): 0
Growth rating TSA plates CII 2 ([1]; A alone 520 ppm): 0
Growth rating TSA plates CII 3 ([1]; A alone 520 ppm): 1
Growth rating TSA plates CII 6 ([1]; A alone 520 ppm): 0
Minimal Inhibitory Concentration (MIC), acting alone (Alternaria alternata): 250 ppm
Minimal Inhibitory Concentration (MIC), acting alone [2]: 1,000 ppm
Minimal Inhibitory Concentration (MIC), acting alone [3]: 250 ppm

CCCCNC(=O)OCC#CI [compound B, iodopropynyl butyl carbamate]
Growth rating MALT Plates CI 1 ([1]; B alone 60 ppm): 0
Growth rating MALT Plates CI 2 ([1]; B alone 60 ppm): 1
Growth rating MALT Plates CI 3 ([1]; B alone 60 ppm): 0
Growth rating MALT Plates CI 6 ([1]; B alone 60 ppm): 0
Growth rating MALT Plates CII 1 ([1]; B alone 60 ppm): 4
Growth rating MALT Plates CII 2 ([1]; B alone 60 ppm): 4
Growth rating MALT Plates CII 3 ([1]; B alone 60 ppm): 4
Growth rating MALT Plates CII 6 ([1]; B alone 60 ppm): 4
Growth rating TSA plates CI 1 ([1]; B alone 60 ppm): 0
Growth rating TSA plates CI 2 ([1]; B alone 60 ppm): 0
Growth rating TSA plates CI 3 ([1]; B alone 60 ppm): 1
Growth rating TSA plates CI 6 ([1]; B alone 60 ppm): 0
Growth rating TSA plates CII 1 ([1]; B alone 60 ppm): 4
Growth rating TSA plates CII 2 ([1]; B alone 60 ppm): 4
Growth rating TSA plates CII 3 ([1]; B alone 60 ppm): 4
Growth rating TSA plates CII 6 ([1]; B alone 60 ppm): 3
Growth rating MALT Plates CI 1 ([1]; B alone 120 ppm): 4
Growth rating MALT Plates CI 2 ([1]; B alone 120 ppm): 4
Growth rating MALT Plates CI 3 ([1]; B alone 120 ppm): 2
Growth rating MALT Plates CI 6 ([1]; B alone 120 ppm): 0
Growth rating MALT Plates CII 1 ([1]; B alone 120 ppm): 4
Growth rating MALT Plates CII 2 ([1]; B alone 120 ppm): 4
Growth rating MALT Plates CII 3 ([1]; B alone 120 ppm): 4
Growth rating MALT Plates CII 6 ([1]; B alone 120 ppm): 4
Growth rating TSA plates CI 1 ([1]; B alone 120 ppm): 4
Growth rating TSA plates CI 2 ([1]; B alone 120 ppm): 2
Growth rating TSA plates CI 3 ([1]; B alone 120 ppm): 0
Growth rating TSA plates CI 6 ([1]; B alone 120 ppm): 0
Growth rating TSA plates CII 1 ([1]; B alone 120 ppm): 4
Growth rating TSA plates CII 2 ([1]; B alone 120 ppm): 3
Growth rating TSA plates CII 3 ([1]; B alone 120 ppm): 3
Growth rating TSA plates CII 6 ([1]; B alone 120 ppm): 3
Growth rating MALT Plates CI 1 ([1]; B alone 200 ppm): 4
Growth rating MALT Plates CI 2 ([1]; B alone 200 ppm): 2
Growth rating MALT Plates CI 3 ([1]; B alone 200 ppm): 1
Growth rating MALT Plates CI 6 ([1]; B alone 200 ppm): 0
Growth rating MALT Plates CII 1 ([1]; B alone 200 ppm): 4
Growth rating MALT Plates CII 2 ([1]; B alone 200 ppm): 4
Growth rating MALT Plates CII 3 ([1]; B alone 200 ppm): 4
Growth rating MALT Plates CII 6 ([1]; B alone 200 ppm): 4
Growth rating TSA plates CI 1 ([1]; B alone 200 ppm): 4
Growth rating TSA plates CI 2 ([1]; B alone 200 ppm): 2
Growth rating TSA plates CI 3 ([1]; B alone 200 ppm): 0
Growth rating TSA plates CI 6 ([1]; B alone 200 ppm): 0
Growth rating TSA plates CII 1 ([1]; B alone 200 ppm): 4
Growth rating TSA plates CII 2 ([1]; B alone 200 ppm): 3
Growth rating TSA plates CII 3 ([1]; B alone 200 ppm): 3
Growth rating TSA plates CII 6 ([1]; B alone 200 ppm): 3
Minimal Inhibitory Concentration (MIC), acting alone (Alternaria alternata): 0.50 ppm
Minimal Inhibitory Concentration (MIC), acting alone [2]: 0.25 ppm
Minimal Inhibitory Concentration (MIC), acting alone [3]: 62.5 ppm
